{
  "source": "paper PMC4850295",
  "about": "“Using a Genetically Encoded Sensor to Identify Inhibitors of Toxoplasma gondii Ca^2+ Signaling” (The Journal of Biological Chemistry, 2016)",
  "data": [
    {"tested_on": "T1, GCaMP5-expressing T. gondii", "T1 construct": "whole extracellular parasites expressing GCaMP5 Ca2+ sensor", "design": "species or system GCaMP5-expressing Toxoplasma gondii, extracellular; GCaMP5 fluorescence (cytosolic Ca2+) after 100 uM zaprinast in compound-pretreated extracellular parasites, background-subtracted, relative to zaprinast alone", "conditions": "100 uM zaprinast stimulation; 10 min pretreatment; mean of two replicates; 0.23 h", "method_in_brief": "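Read-out is GCaMP5 calcium fluorescence (ex 485/em 525 nm) taken 4 min after 100 μM zaprinast at 37 °C, following 10 min compound pretreatment at 10 μM in duplicate biological replicates. Values are basal-subtracted fold change versus zaprinast-only controls; parasites held extracellular in Ringer's solution.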", "values": [
      {"smiles": "Cc1cc(N2CCC(NS(=O)(=O)c3ccc(F)cc3)CC2)nc(Nc2cccc(C#N)c2)n1", "note": "[GSK1653537A]", "fold change in fluorescence relative to zaprinast alone": 0.8395},
      {"smiles": "COc1ccc(S(=O)(=O)NC2CCN(c3cc(C)nc(Nc4cccc(C#N)c4)n3)CC2)cc1", "note": "[GSK1653539A]", "fold change in fluorescence relative to zaprinast alone": 0.8764},
      {"smiles": "CC(=O)N1CCN(c2ccc(Nc3nccc(-c4sc(C(C)C)nc4-c4cccc(NS(=O)(=O)c5cccc(Cl)c5)c4)n3)cn2)CC1", "note": "[GSK1660437A]", "fold change in fluorescence relative to zaprinast alone": 1.275},
      {"smiles": "Cc1occc1-c1nc(N)c(OC[C@@H](N)Cc2c[nH]c3ccccc23)cc1-c1cc2c(C)[nH]nc2cn1", "note": "[GSK1660450B]", "fold change in fluorescence relative to zaprinast alone": 1.179},
      {"smiles": "Cc1cc(N2Cc3ccccc3C2)nc(Nc2ccc(S(=O)(=O)N3CCOCC3)cc2)n1", "note": "[GSK1669917A]", "fold change in fluorescence relative to zaprinast alone": 1.107},
      {"smiles": "CN(C)S(=O)(=O)c1cc(-c2ccc3nccc(-c4cccc(S(N)(=O)=O)c4)c3c2)cnc1N", "note": "[GSK1669921A]", "fold change in fluorescence relative to zaprinast alone": 1.101},
      {"smiles": "Nc1ncc(-c2ccc3nccc(-c4ccncc4)c3c2)cc1S(=O)(=O)N1CCCCC1", "note": "[GSK1693850A]", "fold change in fluorescence relative to zaprinast alone": 0.1427},
      {"smiles": "CCCN1CCC(Oc2cc(Nc3nc(Nc4cccc(F)c4C(N)=O)c4cc[nH]c4n3)c(OC)cc2Cl)CC1", "note": "[GSK1713088A]", "fold change in fluorescence relative to zaprinast alone": 1.364},
      {"smiles": "CC(C)c1nc(-c2cccc(NS(=O)(=O)c3c(F)cccc3F)c2)c(-c2ccnc(Nc3ccc(N4CCOCC4)nc3)n2)s1", "note": "[GSK1723980B]", "fold change in fluorescence relative to zaprinast alone": 0.6316},
      {"smiles": "CC(C)c1nc(-c2ccc(F)c(NS(=O)(=O)c3c(F)cccc3F)c2)c(-c2ccnc(Nc3ccc(N4CCOCC4)nc3)n2)s1", "note": "[GSK1804250A]", "fold change in fluorescence relative to zaprinast alone": 1.361},
      {"smiles": "COc1cc(N2CCN(C(C)C)CC2)ccc1Nc1nc(Nc2cccc(F)c2C(=O)O)c2cc[nH]c2n1", "note": "[GSK1819799A]", "fold change in fluorescence relative to zaprinast alone": 1.115},
      {"smiles": "Cc1ccc(NC(=O)c2cccc(N3CCCCC3)c2)cc1-c1ccc(C(=O)NCC2CC2)cc1", "note": "[GSK1917008A]", "fold change in fluorescence relative to zaprinast alone": 1.193},
      {"smiles": "CC(C)c1nc(-c2cccc(NS(=O)(=O)c3c(F)cccc3F)c2F)c(-c2ccnc(Nc3ccc(N4CCOCC4)nc3)n2)s1", "note": "[GSK2008607A]", "fold change in fluorescence relative to zaprinast alone": 1.572},
      {"smiles": "COc1cc2c(cc1Nc1nc(Nc3ccsc3C(N)=O)c3cc[nH]c3n1)N(C(=O)CN(C)C)CCC2", "note": "[GSK2110236A]", "fold change in fluorescence relative to zaprinast alone": 1.302},
      {"smiles": "N#Cc1ccc(CCNc2nccc(-c3cccc(CN4CCNCC4)c3)n2)cc1", "note": "[GSK2137462A]", "fold change in fluorescence relative to zaprinast alone": 0.3754},
      {"smiles": "COc1cc2c(cc1Nc1nc(Nc3ccsc3C(N)=O)c3cc[nH]c3n1)N(C(=O)CN(C)C)CCC2(C)C", "note": "[GSK2163632A]", "fold change in fluorescence relative to zaprinast alone": 1.131},
      {"smiles": "O=c1[nH]ccc2nc(N[C@@H]3CCCNC3)nc(Nc3ccc(S(=O)(=O)N4CCOCC4)cc3)c12", "note": "[GSK2177277A]", "fold change in fluorescence relative to zaprinast alone": 1.049},
      {"smiles": "O=c1[nH]ccc2nc(N[C@@H]3CCNC3)nc(Nc3ccc4c(c3)S(=O)(=O)CC4)c12", "note": "[GSK2181306A]", "fold change in fluorescence relative to zaprinast alone": 1.236},
      {"smiles": "COc1cc2c(cc1Nc1nc(N3CCc4ccccc43)c3cc[nH]c3n1)N(C(=O)CN(C)C)CC2", "note": "[GSK2186269A]", "fold change in fluorescence relative to zaprinast alone": 1.113},
      {"smiles": "O=c1[nH]ccc2nc(N[C@@H]3CCNC3)nc(Nc3cc(Cl)cc(Cl)c3)c12", "note": "[GSK2188764A (Enh2)]", "fold change in fluorescence relative to zaprinast alone": 2.366},
      {"smiles": "Nc1n[nH]c2cc(-c3ccccn3)ccc12", "note": "[GSK2189892A]", "fold change in fluorescence relative to zaprinast alone": 1.03},
      {"smiles": "Nc1cccc(-c2ccc3c(N)n[nH]c3c2)n1", "note": "[GSK2192730A]", "fold change in fluorescence relative to zaprinast alone": 1.059},
      {"smiles": "Nc1cccc(-c2ccc3c(N)n[nH]c3c2)c1", "note": "[GSK2193613A]", "fold change in fluorescence relative to zaprinast alone": 0.7898},
      {"smiles": "Cc1cccc(Nc2nc(N[C@H]3CCNC3)ncc2C(N)=O)c1", "note": "[GSK2197149A]", "fold change in fluorescence relative to zaprinast alone": 1.037},
      {"smiles": "CNc1nccc(-c2ccc3c(N)n[nH]c3c2)n1", "note": "[GSK2206003A]", "fold change in fluorescence relative to zaprinast alone": 1.243}
    ]}
  ]
}
